Earlier results in US20040223951A1, “Combination therapy for cancer” (Schering Corporation, priority 2000, published 2004).

Tests used:
[1] = tested on: advanced melanoma
[2] = administered orally

Compound: Cn1nnc2c(C(N)=O)ncn2c1=O [Temozolomide, 3,4-dihydro-3-methyl-4-oxoimidazo-[5,1-d]1,2,3,4-tetrazin-8-carboximide]
- clinical response, % of patients with advanced melanoma ([1]; Journal of Clinical Oncology, Vol. 13, No. 4, 1995, pp. 910-913): 21%
- clinical responses, % of patients having advanced melanoma ([1]; Newlands ES, et al., Br J Cancer 65 (2) 287-291, 1992): 17%
- bioavailability [2]: approximately 100%
- plasma concentration of active metabolite MTIC versus conventional dosing (extended daily dosing of TMZ, Brock et al. Cancer Res. 1998;58:4363): higher plasma concentration of the active metabolite MTIC than conventional dosing
- plasma concentrations of MTIC versus DTIC (oral TMZ compared with IV DTIC): higher plasma concentrations of MTIC than IV administration of DTIC
